The values that follow come from ChEMBL document CHEMBL1201862, “PubChem BioAssay data set” (2004).

Each structure is given as a SMILES string. Calls of active or inactive are those of the source. For most assays here, no stated cut-off is given here; in the data, actives have a measured EC50 and inactives only a lower limit.

Assay [1] is described as follows: NIH-3T3 fibroblast cytotoxicity, dose response, cytotoxicity control, cell-based, fluorescence, Alamar Blue, secondary assay (AID 2327).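 Further: NIH-3T3 mouse fibroblasts cultured with fluconazole at 8 µg/mL.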 It is filed as functional.
A short description of assay [2]: C. albicans growth with fluconazole, confirmation, fluorescence, retest (AID 2467). It is filed as functional, cell-based.
Assay [3] has as its target T1, Serine/threonine-protein phosphatase (Candida dubliniensis (strain CD36 / CBS 7987 / NCPF 3949 / NRRLY-17841) (Yeast), UniProt B9W6M3).
T1 sequence (B9W6M3 whole entry): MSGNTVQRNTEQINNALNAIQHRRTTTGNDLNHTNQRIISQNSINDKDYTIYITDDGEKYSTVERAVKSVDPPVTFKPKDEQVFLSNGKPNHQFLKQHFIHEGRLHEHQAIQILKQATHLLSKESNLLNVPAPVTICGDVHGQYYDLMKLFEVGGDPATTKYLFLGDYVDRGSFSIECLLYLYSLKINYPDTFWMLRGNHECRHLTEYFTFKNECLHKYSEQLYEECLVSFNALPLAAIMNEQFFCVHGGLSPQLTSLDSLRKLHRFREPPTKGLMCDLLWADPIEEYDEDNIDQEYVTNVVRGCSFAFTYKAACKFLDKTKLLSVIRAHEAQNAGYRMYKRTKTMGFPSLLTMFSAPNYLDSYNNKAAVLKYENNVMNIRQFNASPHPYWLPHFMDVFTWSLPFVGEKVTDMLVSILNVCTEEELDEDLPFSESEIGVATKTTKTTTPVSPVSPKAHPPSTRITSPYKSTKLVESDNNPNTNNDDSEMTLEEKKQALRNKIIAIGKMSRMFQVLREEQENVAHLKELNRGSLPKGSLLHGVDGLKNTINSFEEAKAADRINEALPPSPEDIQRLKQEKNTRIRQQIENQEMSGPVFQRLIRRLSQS
In words: calcineurin pathway inhibitors in yeast reporter, dose response, S. cerevisiae, CDRE-lacZ, luminescence, secondary (AID 2388).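 Further: yeast reporter cells carrying a calcineurin-responsive lacZ construct stimulated with calcium chloride; luminescent beta-galactosidase reporter signal in whole cells rather than isolated phosphatase activity; potency for inhibition where a drop in reporter signal means calcineurin blockade.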 Type of assay: functional, cell-based.

Assay [4] can be described thus: Luminescence Cell-Based Dose Retest to Confirm Inhibitors of Cancer Stem Cells. [Related pubchem assays (depositor defined):AID2717, AID2721]. It is filed as functional. The following applies: Homo sapiens.
In assay [5] the target is ATP-dependent molecular chaperone HSP82 (Candida albicans (strain WO-1) (Yeast), UniProt C4YTQ8). Nature of the assay: loss of DOC-induced GRE-beta-galactosidase reporter signal, dose response, Hsp90 inhibitor project, S. cerevisiae, luminescence (AID 2400).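 Further: beta-galactosidase luminescence from glucocorticoid response element reporter as proxy for Hsp90 function; inhibitor potency where signal loss means Hsp90 inhibition.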 Type of assay: functional, cell-based.
The nature of assay [6]: Luminescence Cell-Based Dose Confirmation HTS to Identify Activators of 5'UTR Stem-Loop Driven Alpha-Synuclein mRNA Translation in H4 Neuroglioblastoma Cells. [Related pubchem assays: 1829 (Project Summary), 1814 (Primary HTS)]. It is filed as functional.
Assay [7] is described as follows: Luminescence Cell-Based Dose Response HTS to Identify Activators of Luciferase Translation or Activity in H4 […] Cells. [Related pubchem assays: 1829 (Project Summary), 1814 (Primary HTS)]. It is filed as functional.
In a further assay the test system is H4. In words: Luminescence Cell-Based Dose Response HTS to Identify Activators of 5'UTR Stem-Loop Driven Prion Protein mRNA Translation in H4 Neuroglioblastoma Cells. [Related pubchem assays: 1829 (Project Summary), 1814 (Primary HTS)]. Type of assay: functional. The following applies: Homo sapiens.
A further assay relates to HeLa. Nature of the assay: HeLa cell cytotoxicity, dose response, cytotoxicity control for MITF activator project, CellTiter-Glo luminescence, cherry-pick samples (AID 540259). As to conditions: Homo sapiens. Type of assay: functional, cell-based. In general terms: ATP-based viability assays read luminescence as a measure of living cells.
The target of assay [8] is T2, Tyrosine-protein phosphatase non-receptor type 11 (Homo sapiens, UniProt Q06124).
T2 sequence (Q06124 whole entry): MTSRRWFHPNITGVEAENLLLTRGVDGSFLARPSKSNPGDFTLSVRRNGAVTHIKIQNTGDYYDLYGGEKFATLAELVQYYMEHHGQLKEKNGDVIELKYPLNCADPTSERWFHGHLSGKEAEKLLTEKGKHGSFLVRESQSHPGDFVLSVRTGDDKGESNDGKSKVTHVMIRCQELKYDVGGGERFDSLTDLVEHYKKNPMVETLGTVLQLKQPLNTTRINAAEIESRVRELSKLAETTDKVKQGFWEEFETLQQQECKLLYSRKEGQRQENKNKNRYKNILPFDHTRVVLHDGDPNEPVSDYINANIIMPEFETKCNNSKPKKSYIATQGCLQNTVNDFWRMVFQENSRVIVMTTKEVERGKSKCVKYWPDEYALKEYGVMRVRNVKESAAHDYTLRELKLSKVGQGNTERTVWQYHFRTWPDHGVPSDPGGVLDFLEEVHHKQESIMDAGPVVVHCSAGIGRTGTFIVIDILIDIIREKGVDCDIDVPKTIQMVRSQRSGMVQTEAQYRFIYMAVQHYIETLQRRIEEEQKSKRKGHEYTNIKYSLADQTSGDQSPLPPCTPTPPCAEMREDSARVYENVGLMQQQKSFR
In words: SHP2 phosphatase inhibition, dose response, selectivity assay for STEP inhibitor project, biochemical (AID 602367). Type of assay: functional. As to conditions: read-out: IC50_Mean.

For assay [9], the target named is T3, Tyrosine-protein phosphatase non-receptor type 5 (Homo sapiens, UniProt P54829).
T3 sequence (P54829 whole entry): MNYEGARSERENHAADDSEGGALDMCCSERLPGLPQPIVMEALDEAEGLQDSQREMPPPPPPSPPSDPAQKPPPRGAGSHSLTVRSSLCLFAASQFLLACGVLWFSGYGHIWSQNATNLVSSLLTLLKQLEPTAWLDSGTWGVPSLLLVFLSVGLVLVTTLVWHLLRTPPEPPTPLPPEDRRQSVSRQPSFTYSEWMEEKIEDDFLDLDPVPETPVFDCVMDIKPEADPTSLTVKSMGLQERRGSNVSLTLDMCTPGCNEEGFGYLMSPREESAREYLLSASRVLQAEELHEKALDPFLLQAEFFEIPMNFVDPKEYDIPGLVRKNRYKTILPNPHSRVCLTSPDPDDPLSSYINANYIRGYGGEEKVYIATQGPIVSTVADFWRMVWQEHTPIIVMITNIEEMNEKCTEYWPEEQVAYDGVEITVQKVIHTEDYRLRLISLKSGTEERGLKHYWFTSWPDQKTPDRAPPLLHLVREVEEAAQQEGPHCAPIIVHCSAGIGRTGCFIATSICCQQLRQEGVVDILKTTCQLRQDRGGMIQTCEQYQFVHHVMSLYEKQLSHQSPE
In words: STEP phosphatase inhibitors, confirmation, biochemical, fluorescence intensity, uHTS hits (AID 602372). Type of assay: functional. The following applies: read-out: IC50_Mean.

In assay [10] the target is Dual specificity protein phosphatase 3 (Homo sapiens, UniProt P51452). In words: VHR phosphatase inhibition, dose response, selectivity assay for STEP inhibitor project, biochemical (AID 602374). Type of assay: functional. The following applies: read-out: IC50_Mean.
Assay [11] in a line: HEp-2 cell cytotoxicity, dose response, cytotoxicity control for RSV inhibitor project, HTS (AID 2410). As to conditions: human respiratory syncytial virus. It is filed as functional.
Assay [12] has as its system BJ. In words: cytotoxicity toward BJ-TERT fibroblasts, dose response, cell-based, RAS-independent, luminescence (AID 1933). It is filed as functional. As to conditions: Homo sapiens.
The test system of assay [13] is BJ. In words: cells. The following applies: Homo sapiens. It is filed as functional, cell-based.
Assay [14] is described as follows: microbe, parasite or virus in culture. Type of assay: functional. As to conditions: Mycobacterium tuberculosis.
Assay [15] has as its system BJ. Nature of the assay: cytotoxicity toward BJ-TERT-LT-ST fibroblasts, dose response, cell-based, RAS-independent, luminescence (AID 1935).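 Further: BJ fibroblasts immortalized with TERT plus LT and ST oncogenes.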 It is filed as functional. The following applies: Homo sapiens.
Assay [16] can be described thus: cytotoxicity toward DRD oncogenic fibroblasts, dose response, cell-based, non-viral oncogenic, luminescence (AID 1934). Type of assay: functional. The following applies: Homo sapiens.
For assay [17], the target named is Heat shock protein HSP 90-alpha (Homo sapiens, UniProt P07900). It is filed as functional, organism-based.
The next assay deals with INS1. Nature of the assay: beta cell apoptosis inhibitors, cytokine rescue, dose response, luminescence, retest (AID 449756).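 Further: cell death triggered by IL-1 beta plus TNF-alpha plus IFN-gamma mixture; protective hits raise ATP signal compared with cytokine alone wells.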 It is filed as functional, cell-based. The following applies: Rattus norvegicus.
Assay [18] addresses T4, Ubiquitin-conjugating enzyme E2 N (Homo sapiens, UniProt P61088).
T4 sequence (P61088 whole entry): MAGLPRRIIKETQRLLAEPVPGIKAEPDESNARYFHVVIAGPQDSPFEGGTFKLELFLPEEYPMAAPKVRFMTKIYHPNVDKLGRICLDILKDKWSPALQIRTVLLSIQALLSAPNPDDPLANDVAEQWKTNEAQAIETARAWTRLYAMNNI
It is filed as functional.

Assay [19] addresses T5, DNA repair protein RAD52 homolog (Homo sapiens, UniProt P43351).
T5 sequence (P43351 whole entry): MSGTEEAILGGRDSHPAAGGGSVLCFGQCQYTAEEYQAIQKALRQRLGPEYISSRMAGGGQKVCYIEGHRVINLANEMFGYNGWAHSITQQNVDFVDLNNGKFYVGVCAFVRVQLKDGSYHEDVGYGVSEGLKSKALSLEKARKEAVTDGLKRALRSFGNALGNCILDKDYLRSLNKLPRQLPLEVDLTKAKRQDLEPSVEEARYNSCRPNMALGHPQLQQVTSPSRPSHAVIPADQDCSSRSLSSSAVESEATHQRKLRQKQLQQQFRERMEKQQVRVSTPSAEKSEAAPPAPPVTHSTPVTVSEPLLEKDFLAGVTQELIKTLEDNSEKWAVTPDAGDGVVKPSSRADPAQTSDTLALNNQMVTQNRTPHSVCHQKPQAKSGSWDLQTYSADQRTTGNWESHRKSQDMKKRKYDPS
Type of assay: functional, biochemical.

Assay [20] is described as follows: cells. It is filed as functional, cell-based.
Assay [21] can be described thus: inhibitors of intracellular T. cruzi replication, confirmation, NIH3T3 host cells, beta-gal luminescence (AID 2044).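 Further: intracellular parasites grown in NIH/3T3 mouse fibroblasts as host cells; luminescent beta-galactosidase reporter signal from transgenic T. cruzi replicating inside host cells; inhibitors lower the luminescence signal.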 It is filed as functional, cell-based.
The nature of assay [22]: cells. It is filed as functional, cell-based. The source holds these as a separate data set.
Assay [23] is described as follows: cytotoxicity toward NIH3T3 fibroblasts, dose response, counter-screen, cell-based, ATP luminescence, mouse fibroblasts (AID 2010).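 Further: cells exposed to compound for about 90 hours before reading.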 It is filed as functional. A general note: The purpose of a counterscreen is to sort out artefacts and off-target activity.

Sequence of ATP-dependent molecular chaperone HSP82 (C4YTQ8 whole entry): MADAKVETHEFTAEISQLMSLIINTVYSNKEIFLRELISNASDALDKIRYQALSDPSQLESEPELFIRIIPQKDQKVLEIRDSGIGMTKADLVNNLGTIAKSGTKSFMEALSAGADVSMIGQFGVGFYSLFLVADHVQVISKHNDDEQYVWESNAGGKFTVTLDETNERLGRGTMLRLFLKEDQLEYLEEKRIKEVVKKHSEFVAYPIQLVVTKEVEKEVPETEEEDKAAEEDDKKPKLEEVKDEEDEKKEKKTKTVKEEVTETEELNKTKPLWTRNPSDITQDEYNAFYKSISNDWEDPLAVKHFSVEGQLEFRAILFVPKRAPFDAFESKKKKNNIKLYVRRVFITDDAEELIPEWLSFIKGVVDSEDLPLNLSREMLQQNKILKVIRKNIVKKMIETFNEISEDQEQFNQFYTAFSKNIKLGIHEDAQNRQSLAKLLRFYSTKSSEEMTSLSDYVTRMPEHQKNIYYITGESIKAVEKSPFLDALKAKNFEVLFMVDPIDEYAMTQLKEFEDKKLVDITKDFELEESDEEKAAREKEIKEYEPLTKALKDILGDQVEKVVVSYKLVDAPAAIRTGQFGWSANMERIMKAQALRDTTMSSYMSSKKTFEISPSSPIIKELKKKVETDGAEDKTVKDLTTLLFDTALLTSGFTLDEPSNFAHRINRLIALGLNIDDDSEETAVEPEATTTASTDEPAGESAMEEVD
Sequence of Dual specificity protein phosphatase 3 (P51452 whole entry): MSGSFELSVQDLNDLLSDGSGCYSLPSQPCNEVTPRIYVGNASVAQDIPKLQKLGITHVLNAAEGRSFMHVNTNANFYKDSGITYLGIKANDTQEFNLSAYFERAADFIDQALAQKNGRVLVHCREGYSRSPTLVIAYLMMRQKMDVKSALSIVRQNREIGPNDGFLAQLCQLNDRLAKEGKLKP

With `COc1ccc(C2=NN(c3nc4ccccc4s3)C(=O)C2)cc1`, the EC50 (usually the midpoint of the concentration-response curve) in assay [1] is > 160 µM (inconclusive); in assay [2], > 38 µM (not active); in [3], 3.92 µM (active); in [5], 1.4 µM (active). For the same compound, the concentration at half-maximal activity (AC50) (as a rule, the midpoint of the concentration-response curve, whichever way the signal moves) in assay [4] was 2.21 µM (active).

Consider `Cc1ccccc1C(=O)O/N=C(\N)Cc1cccs1`, for which the results for the 50% effective concentration (EC50) (in [6]; in [7]; in the assay on H4) were > 120 µM (not active), 67.6 µM (active) and 6.9 µM (active), respectively. Besides, the AC50 with HeLa is 32 µM (active).

For `C=CCNC(S)=Nc1sc2c(c1C(=O)OCC)CC(C)(CC)OC2` (stereo not given), the EC50 in [1] is > 150 µM (inconclusive); in assay [2], 0.889 µM (active); in assay [3], > 180 µM (inactive); in assay [5], 19.2 µM (active).

With `O=C1NN(c2cccc(Br)c2)C(=O)/C1=C\c1ccc(N2CCOCC2)cc1`, the IC50 in [8] was 4.48 µM (active); in assay [9] it was 21.3 µM (inactive); in [10], 2.55 µM (active).

For the compound `CCCn1nnc2sc3c(c2c1=O)CCC(C)C3` (stereo not given), the CC50 in assay [11] is > 50 µM (active). For the same compound, the figures for the EC50 (in assay [6]; in assay [7]; in the assay on H4) were 41.1 µM (active), 0.528 µM (active) and 16.2 µM (active), respectively. The AC50 with HeLa was 55.9 µM (active).

In the case of `C(C#CCCCCCCCCC[n+]1ccccc1)#CCCCCCCCCC[n+]1ccccc1`, the EC50 is > 150 µM (inactive) in assay [1]; 2.28 µM (inconclusive) with BJ [12]; > 150 µM (inconclusive) in the assay on BJ [13]; 0.05 µM (active) in assay [2]; > 180 µM (inactive) in [3]; 6.02 µM (active) in the assay on BJ [15]. In addition, the figures for the EC50 in assay [16] and in assay [5] were 5.68 µM (active) and > 150 µM (inactive), respectively. Further, the CC50 in assay [14] is > 40 µM (active). Moreover, the AC50 in assay [17] is 3.58 µM (active); with INS1, 1.67 µM (active).

With `CCCCC(=O)NC(=S)Nc1cccc(NC(=O)c2ccco2)c1`, the EC50 in assay [1] was > 150 µM (inconclusive); in assay [2] it was 4.79 µM (active); in assay [3] it was > 180 µM (inactive); in [5], > 160 µM (inactive).

Turning to `NS(=O)(=O)c1ccc(NC(=S)N2CCC(Cc3ccccc3)CC2)cc1`, the IC50 in assay [8] is 3.13 µM (active); in assay [9] it was 38.8 µM (inactive); in assay [10], 1.03 µM (active).

With `CN(C)CCOC(=O)c1ccc2[nH]c3c(c2c1)CSCC3`, the IC50 in assay [18] is > 20 µM (inactive). The AC50 in assay [19] is 0.792 µM (active).

Take `COc1cccc(/C=N/NC(=O)c2c(C)nc3ccc(Br)cn23)c1O`: the EC50 was > 160 µM (inactive) in assay [1]; 7.35 µM (active) in “cells [20]”; 0.483 µM (active) in [2]; 3.06 µM (active) in assay [21]; 126 µM (active) in “cells [22]”; > 180 µM (inactive) in [3]. Further, the figures for the EC50 in assay [23] and in [5] were > 60 µM (inconclusive) and 23.8 µM (active), respectively. In addition, the concentration at half-maximal activity (AC50) in the assay with INS1 is 0.842 µM (active).
